ChEMBL document CHEMBL1201862, “PubChem BioAssay data set” (2004)
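How tested: cells in 96-well plates exposed to compound for 48 hours at five concentrations. GI50 is the concentration that inhibits growth by half.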 The source made the active and inactive calls. No stated cut-off is given here; in the data, active = GI50 up to about 1.1 µM and inactive = higher.

What was measured:
Experiment in all cases: growth of human tumour cells (NCI), 48 h
[1] = tested on: OVCAR-5
[2] = tested on: HT-29
[3] = tested on: HCC 2998
[4] = tested on: A549
[5] = tested on: EKVX
[6] = tested on: Malme-3M
[7] = tested on: CAKI-1
[8] = tested on: KM12
[9] = tested on: SR
[10] = tested on: HOP-62
[11] = tested on: ACHN
[12] = tested on: HL-60
[13] = tested on: NCI-H522
[14] = tested on: LOX IMVI
[15] = tested on: A498
[16] = tested on: SK-MEL-5
[17] = tested on: NCI-H460

Measured: GI50

CCOC(=O)c1csc(CCCCCCc2nc(C(=O)OCC)cs2)n1
inactive: [1] > 100 µM | [2] > 70 µM | [3] > 100 µM | [4] > 45.6 µM | [5] > 86.7 µM | [6] > 74.5 µM | [7] > 88.7 µM | [8] > 100 µM | [9] > 100 µM | [10] > 57.1 µM | [11] > 84.9 µM | [12] > 48.3 µM | [13] > 100 µM | [14] 32.4 µM | [15] > 100 µM | [16] 41.6 µM | [17] 29.7 µM

Cc1c2c(cc3c(=O)ccn(CCN(C)C)c13)c(=O)ccn2CCN(C)C
inactive: [1] 13.5 µM | [3] 6.19 µM | [4] 13.7 µM | [5] 13 µM | [6] 27.4 µM | [7] 16.6 µM | [8] 3.08 µM | [9] 10.6 µM | [10] 6.62 µM | [11] 5.4 µM | [12] 2.24 µM | [13] 2.31 µM | [14] 10.3 µM | [15] 21.4 µM | [16] 20 µM | [17] 3.69 µM

O=S1OC2(c3ccccc3-c3ccccc32)c2ccccc21 (stereo unspecified)
inactive: [1] > 100 µM | [2] > 100 µM | [3] > 100 µM | [4] > 100 µM | [5] > 100 µM | [6] > 100 µM | [8] > 100 µM | [9] > 100 µM | [10] 40.6 µM | [11] > 100 µM | [12] > 100 µM | [13] > 100 µM | [14] > 100 µM | [15] > 100 µM | [16] > 100 µM | [17] > 100 µM

CNc1ccc(/C=C2\C=Cc3ccccc32)cc1
inactive: [1] 18.8 µM | [2] 18.7 µM | [3] 16.6 µM | [4] 24 µM | [5] 20.1 µM | [7] 30.1 µM | [8] 12.7 µM | [9] 53.2 µM | [10] 18.9 µM | [11] 20.3 µM | [12] 4.45 µM | [13] 10.8 µM | [14] 11.5 µM | [15] 28.1 µM | [16] 26.5 µM | [17] 16.6 µM

N#CCC(=O)N/N=C(\C(=O)Nc1ccc(Cl)c(Cl)c1)C1CN(c2ccccc2)N=C1N (stereo unspecified)
inactive: [1] > 100 µM | [2] > 100 µM | [3] > 100 µM | [4] > 100 µM | [5] > 100 µM | [6] > 100 µM | [8] > 100 µM | [9] > 100 µM | [10] > 100 µM | [11] > 100 µM | [12] > 100 µM | [13] > 100 µM | [14] > 100 µM | [15] > 100 µM | [16] > 100 µM | [17] > 100 µM
